Source: ChEMBL document CHEMBL4017513, “Structure-Activity Relationships of Potent, Targeted Covalent Inhibitors That Abolish Both the Transamidation and GTP Binding Activities of Human Tissue Transglutaminase” (J Med Chem, 2017)
Peptide text beside a SMILES is read from it. * marks the point of attachment. Cbz = O=C(OCc1ccccc1)*; Acryloyl = C=CC(=O)*

How the values were obtained:
[1] = target: T1, Protein-glutamine gamma-glutamyltransferase (Homo sapiens) (UniProt P21980); assay: (§1) Irreversible inhibition of human TG2 using AL5 as substrate by colorimetric assay
T1 sequence (whole entry): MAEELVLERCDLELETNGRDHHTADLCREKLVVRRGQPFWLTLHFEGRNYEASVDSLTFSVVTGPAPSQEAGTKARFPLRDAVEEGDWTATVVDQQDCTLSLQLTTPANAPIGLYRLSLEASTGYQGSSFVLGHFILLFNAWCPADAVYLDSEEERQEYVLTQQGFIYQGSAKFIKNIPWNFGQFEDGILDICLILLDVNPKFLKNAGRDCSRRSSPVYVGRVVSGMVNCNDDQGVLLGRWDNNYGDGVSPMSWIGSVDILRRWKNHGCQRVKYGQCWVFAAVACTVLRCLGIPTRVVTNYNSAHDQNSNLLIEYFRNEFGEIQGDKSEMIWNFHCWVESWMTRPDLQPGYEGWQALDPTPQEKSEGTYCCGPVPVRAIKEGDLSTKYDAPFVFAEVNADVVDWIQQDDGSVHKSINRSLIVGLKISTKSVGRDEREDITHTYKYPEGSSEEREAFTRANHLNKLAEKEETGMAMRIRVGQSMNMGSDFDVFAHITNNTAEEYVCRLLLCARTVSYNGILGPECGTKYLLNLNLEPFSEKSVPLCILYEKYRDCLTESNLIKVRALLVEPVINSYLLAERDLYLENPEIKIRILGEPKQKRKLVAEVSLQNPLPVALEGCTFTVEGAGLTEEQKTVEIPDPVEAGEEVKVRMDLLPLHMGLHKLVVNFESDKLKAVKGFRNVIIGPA

[2] = target: T2, Protein-glutamine gamma-glutamyltransferase (Homo sapiens, UniProt P21980); assay: as §1
T2 sequence (P21980 whole entry): T1 sequence (whole entry)

[3] = target: T1, Protein-glutamine gamma-glutamyltransferase (Homo sapiens); assay: Ratio of kinact to Ki for human TG2 by colorimetric assay
[4] = target: T1, Protein-glutamine gamma-glutamyltransferase (Homo sapiens); assay: (§2) Irreversible inhibition of human TG2 using AL5 as substrate by double reciprocal plot method
[5] = target: T2, Protein-glutamine gamma-glutamyltransferase; assay: as §2
[6] = target: T1, Protein-glutamine gamma-glutamyltransferase (Homo sapiens); assay: Ratio of kinact to Ki for human TG2 by double reciprocal plot method
[7] = Inhibition of guinea pig liver TG2 using Z-Gln-Gly/DMPDA as substrate preincubated for 3 mins followed by protein addition; design: species or system Cavia porcellus
Cavia porcellus = organism: Cavia porcellus; assay: Ratio of Kinact to Ki for guinea pig liver TG2
[8] = Inhibition of human ECS cells invasion by using Engelbreth-Holm-Swarm mouse tumor matrigel measured after 18 hrs by DAPI staining-based flourescence microscopy; assay type: functional, cell-based

| SMILES | Kinact [1] [min⁻¹] | Ki [2] [µM] | Ratio [3] [×10³ /M/min] | also measured |
| --- | --- | --- | --- | --- |
| C=CC(=O)NCCCC[C@H](NC(=O)OCc1ccccc1)C(=O)N1CCN(S(=O)(=O)c2ccc3ccccc3c2)CC1 | 0.38 | 6.7 | 57.3 |  |
| C=CC(=O)NCCCC[C@H](NC(=O)OCc1ccccc1)C(=O)NCCNS(=O)(=O)c1cccc2c(N(C)C)cccc12 |  |  |  | Kinact [4]: 1.45 min⁻¹; Ki [5]: 23.5 µM; Ratio [6]: 61.5 ×10³ /M/min |
| C=CC(=O)NCCCC[C@H](NC(=O)OCc1ccccc1)C(=O)N1CCN(C(=O)c2cccc3ccccc23)CC1 |  | 8.9 |  |  |
| C=CC(=O)NCCCC[C@H](NC(=O)OCc1ccccc1)C(=O)N1CCN(S(=O)(=O)c2ccccc2)CC1 | 0.47 | 8.8 | 53.3 |  |
| C=CC(=O)NCCCC[C@H](NC(=O)OCc1ccccc1)C(=O)N1CCN(C(=O)c2cc3ccc(O)cc3oc2=O)CC1 | 0.69 | 11.2 | 62.1 |  |
| C=CC(=O)NCCCC[C@H](NC(=O)OCc1ccccc1)C(=O)N1CCN(S(=O)(=O)C2CCCCC2)CC1 | 0.69 | 11 | 62.9 |  |
| C=CC(=O)NCCCC[C@H](NC(=O)OCc1ccccc1)C(=O)N1CCN(S(=O)(=O)Cc2ccccc2)CC1 | 0.47 | 14.7 | 34.9 |  |
| C=CC(=O)NCCCC[C@H](NC(=O)OCc1ccccc1)C(=O)NCCCNS(=O)(=O)c1cccc2c(N(C)C)cccc12 |  |  |  | Kinact [4]: 0.85 min⁻¹; Ki [5]: 30.5 µM; Ratio [6]: 27.6 ×10³ /M/min |
| C=CC(=O)NCCCC[C@H](NC(=O)OCc1ccccc1)C(N)=O |  |  |  | Kinact [4]: 1.08 min⁻¹; Ki [5]: 35.1 µM; Ratio [6]: 30.7 ×10³ /M/min |
| C=CC(=O)NCCCC[C@H](NC(=O)OCc1ccccc1)C(=O)N1CCN(S(=O)(=O)c2cccc3ccccc23)CC1 | 0.39 | 10.4 | 37.2 |  |
| C=CC(=O)NCCCC[C@H](NC(=O)OCc1ccccc1)C(=O)N1CCN(C(=O)c2ccc3ccccc3c2)CC1 | 1.21 | 13.4 | 90.3 |  |
| C=CC(=O)NCCCC[C@H](NC(=O)OCc1ccccc1)C(=O)NCCCCNS(=O)(=O)c1cccc2c(N(C)C)cccc12 |  |  |  | Kinact [4]: 2.19 min⁻¹; Ki [5]: 27.1 µM; Ratio [6]: 80.8 ×10³ /M/min |
| C=CC(=O)NCCCC[C@H](NC(=O)OCc1ccccc1)C(=O)N1CCN(S(=O)(=O)c2cccc3c(N(C)C)cccc23)CC1 |  | 12.9 |  | EC50 [8]: 3.9 µM |
| C=CC(=O)NCCC[C@H](NC(=O)OCc1ccccc1)C(=O)N1CCN(S(=O)(=O)c2cccc3c(N(C)C)cccc23)CC1 |  |  |  | Kinact [4]: 1.18 min⁻¹; Ki [5]: 47.7 µM; Ratio [6]: 24.7 ×10³ /M/min |

Second part, led by results:

| Kinact [1] [min⁻¹] | Ki [2] [µM] | Ratio [3] [×10³ /M/min] | SMILES | also measured |
| --- | --- | --- | --- | --- |
| 2.93 | 32.1 | 91.3 | C=CC(=O)NCCCC[C@H](NC(=O)OCc1ccccc1)C(=O)N1CCN(C(=O)c2ccccn2)CC1 |  |
| 0.97 | 17.4 | 56 | C=CC(=O)NCCCC[C@H](NC(=O)OCc1ccccc1)C(=O)N1CCN(c2ccccc2Cl)CC1 |  |
| 0.5 | 9.1 | 54.7 | C=CC(=O)NCCCC[C@H](NC(=O)OCc1ccccc1)C(=O)N1CCN(S(=O)(=O)C(C)C)CC1 |  |
| 1.47 | 28.9 | 51 | C=CC(=O)NCCCC[C@H](NC(=O)OCc1ccccc1)C(=O)N1CCOCC1 |  |
| 4.77 | 36.6 | 130 | C=CC(=O)NCCCC[C@H](NC(=O)OCc1ccccc1)C(=O)N1CCN(C(=O)c2ccccc2)CC1 |  |
| 1.26 | 48.1 | 26.1 | C=CC(=O)NCCCC[C@H](NC(=O)OCc1ccccc1)C(=O)NCC(=O)O (Cbz-Lys(Acryloyl)-Gly-OH) | Ki [7]: 0.15 µM; Ratio (Cavia porcellus): 3 ×10⁶ /M/min |
|  | 60.3 |  | C=CC(=O)NCCCC[C@H](NC(=O)OCc1ccccc1)C(=O)O | Ki [7]: 0.52 µM |
| 1.42 | 36 | 39.4 | C=CC(=O)NCCCC[C@H](NC(=O)OCc1ccccc1)C(=O)N1CCN(S(=O)(=O)CC)CC1 |  |
| 1.48 | 40.1 | 36.8 | C=CC(=O)NCCCC[C@H](NC(=O)OCc1ccccc1)C(=O)N1CCN(S(=O)(=O)c2cccs2)CC1 |  |
| 1.44 | 23.4 | 61.4 | C=CC(=O)NCCCC[C@H](NC(=O)OCc1ccccc1)C(=O)N1CCN(C(=O)c2cccnc2)CC1 |  |
| 1.43 | 38.7 | 37 | C=CC(=O)NCCCC[C@H](NC(=O)OCc1ccccc1)C(=O)N1CCN(C(=O)c2ccncc2)CC1 |  |
| 2.06 | 52.1 | 36.9 | C=CC(=O)NCCCC[C@H](NC(=O)OCc1ccccc1)C(=O)N1CCN(C(C)=O)CC1 |  |
| 2.26 | 20 | 113 | C=CC(=O)NCCCC[C@H](NC(=O)OCc1ccccc1)C(=O)N1CCN(C(=O)Cc2ccccc2)CC1 |  |
| 1.45 | 40 | 36.2 | C=CC(=O)NCCCC[C@H](NC(=O)OCc1ccccc1)C(=O)NCC(=O)OC (Cbz-Lys(Acryloyl)-Gly-OMe) |  |
| 0.5 | 6.4 | 78.4 | C=CC(=O)NCCCC[C@H](NC(=O)OCc1ccccc1)C(=O)N1CCN(S(C)(=O)=O)CC1 |  |
